# Test results: patent US20210154170A1, “METHODS OF TREATING NEUROPATHIC PAIN” (Biogen MA Inc., priority 2018, published 2021)
# Like-named read-outs stand apart in the source and are kept apart here.
# Assays:
# healthy participants = test: Phase 1 ABPM study, safety (adverse events, ECG); assay type: in vivo, human
# Method: This was a Phase 1, randomized, double-blind, placebo-controlled, repeat dose, 2-period cross-over study to investigate the effect of BIIB074 300-400 mg bid on ambulatory blood pressure (ABP) in healthy participants (FIG. 2). The study comprised: screening (to occur a maximum of 30 days before the first baseline assessment); two 36-day treatment periods, each preceded by a baseline visit and separated by a 7-day washout (to minimize possible carry over effects); and a follow-up period of 7-14 days after last dose. Prior to this study, no females had received BIIB074; for this reason, a single dose BIIB074 session at the dose level of 400 mg was also conducted in female participants one week prior to the period 1 baseline visit. Following this session, some participants were predicted to exceed the predefined PK limit (area under the plasma concentration-time curve [AUC] 97 μg·h/mL) when receiving 400 mg bid at steady state. Therefore, in the subsequent phases of the study, all female participants received a lower dose of 300 mg bid (males received 400 mg bid).
# Safety was assessed through monitoring of adverse events (AEs), vital signs, electrocardiogram (ECG), and laboratory safety tests (including clinical chemistry).
# The safety population was the primary analysis population for this study and included all participants who received one or more doses of BIIB074. The PK population was defined as participants in the safety population for whom a PK sample was obtained and analyzed.
# [1] = system: patients with lumbosacral radiculopathy; conditions: PLSR, 350 mg bid, Phase 2, cited from earlier work
# dogs = test: Preclinical safety pharmacology, cardiovascular parameters; assay type: in vivo, dog; conditions: data not shown
# Text: The 36 day treatment duration in this study was rationally designed to determine whether tolerance developed for any potential effects of BIIB074 on SBP or DBP, since BP effects resolved by day 28 in the earlier phase 1 trial. The data from this study show a slight trend towards a decrease in the BP difference between BIIB074 and placebo between day 4 and day 35, although differences were minimal at all time points. […] Thus, the body of evidence, encompassing clinical and preclinical studies, supports safety and minimal effects of BIIB074 on BP/cardiovascular parameters.
# healthy subjects = test: Phase 1 valproic acid interaction study, safety and tolerability
# Text: • To evaluate the safety and tolerability of BIIB074 when administered alone and when coadministered with the UGT inhibitor valproic acid. • The endpoints that relate to this objective are the incidence of adverse events (AEs) and serious adverse events (SAEs), and changes in clinical laboratory parameters, vital signs, 12-lead electrocardiograms (ECGs), and Columbia Suicide Severity Rating Scale (C-SSRS) assessments. • To evaluate the effect of the UGT inhibitor valproic acid on the PK of the M13, M14, and M16 metabolites of BIIB074. • The endpoints that relate to this objective are: Cmax, AUCinf, AUClast, Tmax, Tlast, t1/2, and metabolite to parent ratio in AUC (MRAUC) of the M13, M14, and M16 metabolites of BIIB074
# 1. A single oral dose of BIIB074 administered in the morning on Days 1 and 16 following an 8-hour fast. The Day 16 dose was coadministered with the morning dose of valproic acid. 2. Valproic acid 500 mg TID was administered on Days 8 through 22. The morning dose on Day 16 was coadministered with BIIB074 following an 8-hour fast. 3. Blood samples for BIIB074 and metabolite PK collected predose and through 168 hours postdose on Days 1 through 8 and Days 16 through 23. 4. Single blood samples collected on Days 13 through 15 prior to the morning dose of valproic acid only, in order to determine valproic acid trough levels.
# [2] = 400 mg single dose, females, N = 22
# [3] = 300-400 mg bid repeat dosing, N = 54
structure (smiles),measurement,setting,value
"Cl.NC(=O)[C@@H]1CC[C@H](c2ccc(OCc3ccccc3F)cc2)N1 [Example 1, (5R)-5-(4-{[(2-Fluorophenyl)methyl]oxy}phenyl)-L-prolinamide hydrochloride]",Severity of all AEs,healthy participants; 400 mg single dose in females,mild in nature
same,Diarrhoea,healthy participants; [2],0 n (%)
same,Dizziness,healthy participants; [2],5 (23) n (%)
same,Fatigue,healthy participants; [2],0 n (%)
same,Headache,healthy participants; [2],6 (27) n (%)
same,Hypersensitivity (allergy symptoms),healthy participants; [2],0 n (%)
same,Nasopharyngitis,healthy participants; [2],0 n (%)
same,Nausea,healthy participants; [2],3 (14) n (%)
same,Oropharyngeal pain,healthy participants; [2],0 n (%)
same,Pain in extremity,healthy participants; [2],0 n (%)
same,Participants with any AE,healthy participants; [2],12 (55) n (%)
same,Pyrexia,healthy participants; [2],0 n (%)
same,Rash,healthy participants; [2],0 n (%)
same,Vomiting,healthy participants; [2],1 (5) n (%)
same,AEs of moderate intensity,healthy participants; 300-400 mg bid repeat dose,9 AEs
same,AEs of severe intensity,healthy participants; 300-400 mg bid repeat dose,2 AEs
same,Diarrhoea,healthy participants; [3],1 (2) n (%)
same,Dizziness,healthy participants; [3],6 (11) n (%)
same,Fatigue,healthy participants; [3],2 (4) n (%)
same,Hypersensitivity (allergy symptoms),healthy participants; [3],2 (4) n (%)
same,Nasopharyngitis,healthy participants; [3],6 (11) n (%)
same,Nausea,healthy participants; [3],4 (7) n (%)
same,Oropharyngeal pain,healthy participants; [3],2 (4) n (%)
same,Pain in extremity,healthy participants; [3],0 n (%)
same,Participants with any AE,healthy participants; [3],25 (46) n (%)
same,Pyrexia,healthy participants; [3],2 (4) n (%)
same,Rash,healthy participants; [3],1 (2) n (%)
same,Vomiting,healthy participants; [3],3 (6) n (%)
same,Headache,"healthy participants; 300-400 mg bid repeat dosing, N = 54, listed as BIIB074, hydrochloride",11 (20) n (%)
same,Tolerability,"healthy participants; 300-400 mg bid, 36 days",well tolerated
same,ECG changes,healthy participants; day 1-35,no clinically significant ECG changes
same,Participants withdrawn due to AEs while on BIIB074,healthy participants; of 60 enrolled,5 participants
same,Serious AEs,healthy participants; whole study,No serious AEs
same,Clinical efficacy,[1]; hydrochloride,EFFICACY OBSERVED in
same,Clinical efficacy,"[1]; listed as CNV1014802, hydrochloride",demonstrated clinical benefit
same,Effects on cardiovascular parameters,dogs,no effects
same,Abdominal pain,"healthy subjects; human, in vivo",0 n (%)
same,Asthenia,"healthy subjects; human, in vivo",0 n (%)
same,Cardiac disorders,"healthy subjects; human, in vivo",0 n (%)
same,Diarrhoea,"healthy subjects; human, in vivo",0 n (%)
same,Dizziness,"healthy subjects; human, in vivo",0 n (%)
same,Dyspepsia,"healthy subjects; human, in vivo",0 n (%)
same,Events leading to drug withdrawal,"healthy subjects; human, in vivo",0 n (%)
same,Events leading to study withdrawal,"healthy subjects; human, in vivo",0 n (%)
same,Faeces soft,"healthy subjects; human, in vivo",0 n (%)
same,Gastrointestinal disorders,"healthy subjects; human, in vivo",1 (3.3) n (%)
same,General disorders and administration site conditions,"healthy subjects; human, in vivo",0 n (%)
same,Glossodynia,"healthy subjects; human, in vivo",1 (3.3) n (%)
same,Headache,"healthy subjects; human, in vivo",1 (3.3) n (%)
same,Nausea,"healthy subjects; human, in vivo",0 n (%)
same,Nervous system disorders,"healthy subjects; human, in vivo",1 (3.3) n (%)
same,Non-cardiac chest pain,"healthy subjects; human, in vivo",0 n (%)
same,Number of subjects with any event,"healthy subjects; human, in vivo",2 (6.7) n (%)
same,Pallor,"healthy subjects; human, in vivo",0 n (%)
same,Palpitations,"healthy subjects; human, in vivo",0 n (%)
same,Pruritus,"healthy subjects; human, in vivo",0 n (%)
same,Related event,"healthy subjects; human, in vivo",0 n (%)
same,Related serious event,"healthy subjects; human, in vivo",0 n (%)
same,Serious event,"healthy subjects; human, in vivo",0 n (%)
same,Severity: Mild,"healthy subjects; human, in vivo",2 (6.7) n (%)
same,Severity: Moderate,"healthy subjects; human, in vivo",0 n (%)
same,Severity: Severe,"healthy subjects; human, in vivo",0 n (%)
same,Skin and subcutaneous tissue disorders,"healthy subjects; human, in vivo",0 n (%)
same,TEAEs considered related to BIIB074,"healthy subjects; human, in vivo",No TEAEs were considered related to BIIB074
same,Vascular disorders,"healthy subjects; human, in vivo",0 n (%)
same,Vomiting,"healthy subjects; human, in vivo",0 n (%)
same,Safety conclusion,healthy subjects; in vivo,safe and well tolerated
same,Fatal event,healthy subjects; per treatment period,0 n (%)
